Experimental data: patent US7727965B2, “C-glycosylisoflavones having alkylaminoalkoxyl substituent, preparation and use of the same” (Hainan Yangpu New & Special Medicine Co., Ltd., priority 2003, dated 2010)

Key:
Kunming mice = test: Normal pressure hypoxia-resistance test in mice; format: in vivo; conditions: 60 mg/Kg intraperitoneal, 0.5 hours before sealing in 250 ml bottles, examples tested as hydrochloride salts
Description: This test was carried out by a common method familiar to those skilled in the art. 32 Kunming mice (16 males vs. 16 females, body weights ranging from 18 to 20 g) were randomly divided into a control group and a administration group (each group having 16 animals), wherein the dosage was 60 mg/Kg mouse and 0.2 ml for each animal. After 0.5 hours of the intraperitoneal injection of test solutions, the mice were placed and sealed in 250 ml wide-mouthed bottles with ground stoppers. The times of death were recorded. Statistical analysis was conducted separately with respect to the blank control group and puerarin group, and P values were calculated.

[1] = cited from earlier work
[2] = 568 patients administered with puerarin; cited from earlier work
[3] = cited from earlier work; remark: listed apart in the source

| Compound | Time to death (Kunming mice) [min] | also measured |
| --- | --- | --- |
| CCN(CC)CCCCOc1ccc(-c2coc3c([C@@H]4O[C@H](CO)[C@@H](O)[C@H](O)[C@H]4O)c(O)ccc3c2=O)cc1 [Example 14, 4′-(4-N-diethylaminobutoxy)-7-hydroxy-8-β-D-(1-deoxyglucosyl)isoflavone] | 79.1 ± 8 |  |
| CCN(CC)CCCOc1ccc(-c2coc3c([C@@H]4O[C@H](CO)[C@@H](O)[C@H](O)[C@H]4O)c(O)ccc3c2=O)cc1 [Example 6, 4′-(3-N-diethylaminopropoxy)-7-hydroxy-8-β-D-(1-deoxyglucosyl)-isoflavone] | 73.5 ± 9 |  |
| CCCN(CCC)CCCOc1ccc(-c2coc3c([C@@H]4O[C@H](CO)[C@@H](O)[C@H](O)[C@H]4O)c(O)ccc3c2=O)cc1 [Example 7, 4′-[3-N-di(n-propyl)aminopropoxy]-7-hydroxy-8-β-D-(1-deoxyglucosyl)-isoflavone] | 69.8 ± 5 |  |
| CCN1CCN(CCCCOc2ccc(-c3coc4c([C@@H]5O[C@H](CO)[C@@H](O)[C@H](O)[C@H]5O)c(O)ccc4c3=O)cc2)CC1 [Example 18, 4′-(4-N-ethylpiperazinylbutoxy)-7-hydroxy-8-β-D-(1-deoxyglucosyl)-isoflavone] | 75.9 ± 6 |  |
| CN1CCN(CCCCOc2ccc(-c3coc4c([C@@H]5O[C@H](CO)[C@@H](O)[C@H](O)[C@H]5O)c(O)ccc4c3=O)cc2)CC1 [Example 17, 4′-(4-N-methylpiperazinylbutoxy)-7-hydroxy-8-β-D-(1-deoxyglucosyl)-isoflavone] | 59.8 ± 7 |  |
| O=c1c(-c2ccc(O)cc2)coc2c([C@@H]3O[C@H](CO)[C@@H](O)[C@H](O)[C@H]3O)c(O)ccc12 [puerarin, 4′,7-dihydroxy-8-β-D-C-glycosylisoflavone] | 48.3 ± 5 | solubility of puerarin in 4.3% PVP aqueous solution ([1]; 4.3% PVP aqueous solution): 1.332 g/100 ml; stability in an aqueous solution ([1]; relatively high pH value): poor stability; solubility of puerarin in water ([1]; water): 0.462 g/100 ml; total incidence rate of febrile [2]: 5.81%; oral bioavailability [3]: about 30% |
| O=c1c(-c2ccc(OCCCN3CCOCC3)cc2)coc2c([C@@H]3O[C@H](CO)[C@@H](O)[C@H](O)[C@H]3O)c(O)ccc12 [Example 4, 4′-(3-N-morpholinylpropoxy)-7-hydroxy-8-β-D-(1-deoxyglucosyl)isoflavone] | 75.3 ± 7 |  |
